Measured values as given in ChEMBL document CHEMBL1201862, “PubChem BioAssay data set” (2004).
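Tested at 5 concentrations; 48 h exposure; 96-well plates; endpoints linearly interpolated, else capped at highest concentration. At the GI50, growth is halved.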 Active and inactive are the calls of the source. No stated cut-off is given here; in the data, active = GI50 up to about 1.1 µM and inactive = higher.

Key:
Assay in all cases: inhibition of tumour cell growth, NCI panel, 48 h
IGROV-1 = system: IGROV-1
BT-549 = system: BT-549
M14 = system: M14
MDA-MB-231 = system: MDA-MB-231
NCI/ADR-RES = system: NCI/ADR-RES
OVCAR-3 = system: OVCAR-3
DU-145 = system: DU-145
MDA-N = system: MDA-N
SNB-19 = system: SNB-19
KM12 = system: KM12
SK-MEL-2 = system: SK-MEL-2
UACC-62 = system: UACC-62
TK-10 = system: TK-10
UO-31 = system: UO-31
ACHN = system: ACHN
EKVX = system: EKVX
OVCAR-5 = system: OVCAR-5
RPMI-8226 = system: RPMI-8226
COLO 205 = system: COLO 205
NCI-H23 = system: NCI-H23

Q: `BrCc1ccc(CBr)c2c1-c1c(CBr)ccc3ccc(CBr)c-2c13` was tested. Which GI50 (IGROV-1) did it give?
A: > 100 µM (inactive)

Q: What about the GI50 (BT-549) of the same compound?
A: > 100 µM (inactive)

Q: What about the GI50 (M14) of the same compound?
A: > 100 µM (inactive)

Q: What about the GI50 (MDA-MB-231) of the same compound?
A: > 100 µM (inactive)

Q: What about the GI50 (NCI/ADR-RES) of the same compound?
A: > 100 µM (inactive)

Q: And the GI50 (OVCAR-3)?
A: > 100 µM (inactive)

Q: What about the GI50 (DU-145) of the same compound?
A: > 100 µM (inactive)

Q: What about the GI50 (MDA-N) of the same compound?
A: > 100 µM (inactive)

Q: And the GI50 (SNB-19)?
A: > 100 µM (inactive)

Q: What about the GI50 (KM12) of the same compound?
A: > 100 µM (inactive)

Q: What about the GI50 (SK-MEL-2) of the same compound?
A: > 100 µM (inactive)

Q: What about the GI50 (UACC-62) of the same compound?
A: > 100 µM (inactive)

Q: And the GI50 (TK-10)?
A: > 100 µM (inactive)

Q: And the GI50 (UO-31)?
A: > 100 µM (inactive)

Q: And the GI50 (ACHN)?
A: > 100 µM (inactive)

Q: What about the GI50 (EKVX) of the same compound?
A: > 100 µM (inactive)

Q: What about the GI50 (OVCAR-5) of the same compound?
A: > 100 µM (inactive)

Q: And the GI50 (RPMI-8226)?
A: 95.7 µM (inactive)

Q: With `CCN(CC)CCn1ncc2c3c(=O)c4cccnc4n(CCN(CC)CC)c3ccc21` as the compound, how does the GI50 (COLO 205) read?
A: 2.32 µM (inactive)

Q: And the GI50 (IGROV-1)?
A: > 10 µM (inactive)

Q: What about the GI50 (BT-549) of the same compound?
A: > 10 µM (inactive)

Q: What about the GI50 (M14) of the same compound?
A: > 10 µM (inactive)

Q: What about the GI50 (MDA-MB-231) of the same compound?
A: > 10 µM (inactive)

Q: And the GI50 (NCI/ADR-RES)?
A: 9.18 µM (inactive)

Q: What about the GI50 (OVCAR-3) of the same compound?
A: 8.11 µM (inactive)

Q: And the GI50 (DU-145)?
A: > 10 µM (inactive)

Q: And the GI50 (MDA-N)?
A: > 10 µM (inactive)

Q: And the GI50 (SNB-19)?
A: > 10 µM (inactive)

Q: And the GI50 (KM12)?
A: 6.19 µM (inactive)

Q: What about the GI50 (SK-MEL-2) of the same compound?
A: > 10 µM (inactive)

Q: And the GI50 (UACC-62)?
A: > 10 µM (inactive)

Q: What about the GI50 (NCI-H23) of the same compound?
A: > 10 µM (inactive)

Q: What about the GI50 (TK-10) of the same compound?
A: > 10 µM (inactive)

Q: What about the GI50 (ACHN) of the same compound?
A: 5.21 µM (inactive)

Q: What about the GI50 (EKVX) of the same compound?
A: > 10 µM (inactive)

Q: And the GI50 (OVCAR-5)?
A: 9.12 µM (inactive)

Q: And the GI50 (RPMI-8226)?
A: > 10 µM (inactive)

Q: Which results are given for `COc1ccccc1C1C2=C(COC2=O)Oc2cc3c(cc21)OCO3` (stereo unspecified)?
A: GI50 (COLO 205): 1.78 µM (inactive); GI50 (IGROV-1): 2.53 µM (inactive); GI50 (BT-549): 66.2 µM (inactive); GI50 (M14): 1.4 µM (inactive); GI50 (MDA-MB-231): 3.45 µM (inactive); GI50 (NCI/ADR-RES): 2.31 µM (inactive); GI50 (OVCAR-3): 2.55 µM (inactive); GI50 (DU-145): 3.39 µM (inactive); GI50 (MDA-N): 0.245 µM (active); GI50 (SNB-19): 3.19 µM (inactive); GI50 (KM12): 1.33 µM (inactive); GI50 (SK-MEL-2): 5.15 µM (inactive); GI50 (UACC-62): 1.06 µM (active); GI50 (NCI-H23): 3.22 µM (inactive); GI50 (TK-10): 12.4 µM (inactive); GI50 (UO-31): 3.56 µM (inactive); GI50 (ACHN): 14 µM (inactive); GI50 (EKVX): 2.29 µM (inactive); GI50 (OVCAR-5): 11 µM (inactive); GI50 (RPMI-8226): 3.27 µM (inactive)

Q: `Cc1ccc2c(c1)C(=O)/C(=C1/CCc3ccc(C)cc31)C2` was tested. Which GI50 (COLO 205) did it give?
A: 57.9 µM (inactive)

Q: And the GI50 (IGROV-1)?
A: > 100 µM (inactive)

Q: And the GI50 (BT-549)?
A: > 100 µM (inactive)

Q: And the GI50 (M14)?
A: > 100 µM (inactive)

Q: And the GI50 (MDA-MB-231)?
A: 27.8 µM (inactive)

Q: And the GI50 (NCI/ADR-RES)?
A: > 100 µM (inactive)

Q: And the GI50 (OVCAR-3)?
A: > 100 µM (inactive)

Q: And the GI50 (DU-145)?
A: > 100 µM (inactive)

Q: What about the GI50 (MDA-N) of the same compound?
A: > 100 µM (inactive)

Q: And the GI50 (SNB-19)?
A: 87.5 µM (inactive)

Q: And the GI50 (KM12)?
A: > 100 µM (inactive)

Q: What about the GI50 (SK-MEL-2) of the same compound?
A: > 100 µM (inactive)

Q: And the GI50 (UACC-62)?
A: > 100 µM (inactive)

Q: What about the GI50 (NCI-H23) of the same compound?
A: > 100 µM (inactive)

Q: What about the GI50 (TK-10) of the same compound?
A: > 100 µM (inactive)

Q: What about the GI50 (UO-31) of the same compound?
A: > 100 µM (inactive)

Q: And the GI50 (ACHN)?
A: > 100 µM (inactive)

Q: What about the GI50 (EKVX) of the same compound?
A: > 100 µM (inactive)

Q: And the GI50 (OVCAR-5)?
A: > 100 µM (inactive)

Q: And the GI50 (RPMI-8226)?
A: > 100 µM (inactive)

Q: For `NNC(=O)c1nnn(N)c1S`, which GI50 (COLO 205) is on record?
A: > 100 µM (inactive)

Q: And the GI50 (IGROV-1)?
A: > 100 µM (inactive)

Q: What about the GI50 (BT-549) of the same compound?
A: > 100 µM (inactive)

Q: What about the GI50 (M14) of the same compound?
A: > 100 µM (inactive)

Q: What about the GI50 (MDA-MB-231) of the same compound?
A: 45.4 µM (inactive)

Q: And the GI50 (NCI/ADR-RES)?
A: > 100 µM (inactive)

Q: What about the GI50 (OVCAR-3) of the same compound?
A: > 100 µM (inactive)

Q: What about the GI50 (DU-145) of the same compound?
A: > 100 µM (inactive)

Q: What about the GI50 (MDA-N) of the same compound?
A: > 100 µM (inactive)

Q: What about the GI50 (KM12) of the same compound?
A: 13.5 µM (inactive)

Q: What about the GI50 (SK-MEL-2) of the same compound?
A: > 100 µM (inactive)

Q: What about the GI50 (UACC-62) of the same compound?
A: > 100 µM (inactive)

Q: What about the GI50 (NCI-H23) of the same compound?
A: > 100 µM (inactive)

Q: And the GI50 (TK-10)?
A: > 100 µM (inactive)

Q: And the GI50 (UO-31)?
A: > 100 µM (inactive)

Q: And the GI50 (ACHN)?
A: > 100 µM (inactive)

Q: And the GI50 (EKVX)?
A: > 100 µM (inactive)

Q: And the GI50 (OVCAR-5)?
A: > 100 µM (inactive)

Q: What about the GI50 (RPMI-8226) of the same compound?
A: > 100 µM (inactive)
